PubChem BioAssay (NCI)
“And” between values parts separate entries of the source, which are not always exact repeats. Identical values can stand only once.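 Test compounds were applied to cells in 96-well plates for 48 hours at 5 doses. GI50: concentration for 50% inhibition of growth. At the TGI there is no net growth.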

Key:
Assay in all cases: inhibition of tumour cell growth, NCI panel, 48 h
TK-10 renal = tested on: TK-10 renal
786-0 renal = tested on: 786-0 renal
SF-539 CNS = tested on: SF-539 CNS
EKVX NSCLC = tested on: EKVX NSCLC
A549 NSCLC = tested on: A549 NSCLC
OVCAR-8 ovarian = tested on: OVCAR-8 ovarian
KM12 colon = tested on: KM12 colon
NCI-H522 lung = tested on: NCI-H522 lung
SK-MEL-2 melanoma = tested on: SK-MEL-2 melanoma
CCRF-CEM leukemia = tested on: CCRF-CEM leukemia

SMILES | TGI (TK-10 renal) | TGI (786-0 renal) | TGI (SF-539 CNS) | TGI (EKVX NSCLC) | TGI (A549 NSCLC) | TGI (OVCAR-8 ovarian) | TGI (KM12 colon) | TGI (NCI-H522 lung) | TGI (SK-MEL-2 melanoma) | TGI (CCRF-CEM leukemia) | GI50 (TK-10 renal) | GI50 (786-0 renal) | GI50 (SF-539 CNS) | GI50 (EKVX NSCLC) | GI50 (A549 NSCLC) | GI50 (OVCAR-8 ovarian) | GI50 (NCI-H522 lung) | GI50 (SK-MEL-2 melanoma) | GI50 (CCRF-CEM leukemia) | GI50 (KM12 colon)
O=C(/C=C/c1ccc(O)c(O)c1)OC1C[C@@](O)(C(=O)O)C[C@@H](O)[C@H]1OC(=O)/C=C/c1ccc(O)c(O)c1 (stereo partly drawn) | > 100 µM | > 100 µM | > 100 µM | > 100 µM | > 100 µM | > 100 µM | > 100 µM | > 100 µM | > 100 µM | > 100 µM |  |  |  |  |  |  |  |  |  | 
Cc1ncc(C(=O)Nc2ccc(CN3CCN(C)CC3)c(C(F)(F)F)c2)cc1C#Cc1cnc(N)c2cnccc12 | 1.93 µM | 11 µM | 1.29 µM | 12.9 µM | 4.87 µM | 16.3 µM | 11.2 µM | 13.1 µM | 0.0941 µM | 3.46 µM | 0.132 µM | 0.225 µM | 0.193 µM | 0.358 µM | 0.202 µM | 0.112 µM | 0.0654 µM | 0.0243 µM | 0.0906 µM | 
CCN(CC)c1ccc(C2CC(c3cc(OC)c(OC)c(OC)c3)=NN2)cc1 (stereo not drawn) | > 100 µM |  | 2.18 µM |  | > 32.2 µM | > 27.5 µM | > 100 µM | 5.18 µM | > 95.5 µM | 1.16 µM | 36 µM | 0.303 µM | 0.29 µM | 0.305 µM | 0.591 µM | 0.43 µM | 0.295 µM | 6.6 µM | 0.277 µM | 0.372 µM
CCCOc1ccc(-c2nc(-c3ccc(N=Cc4ccc(N(CCOS(C)(=O)=O)CCOS(C)(=O)=O)cc4C)cc3)cs2)cc1 | 41.1 µM | 26.5 µM | 48.8 µM | 56.9 µM | 34.2 µM | > 100 µM | 42 µM | 4.99 µM | 50.9 µM | > 100 µM |  |  |  |  |  |  |  |  |  | 
COC(=O)[C@@]1(Cc2ccccc2)[C@H]2c3cc(C(=O)N4CCCC4)n(Cc4ccc(OC)c(OC)c4)c3C[C@H]2CN1C(=O)c1ccccc1 | 43.9 µM | > 50 µM | 18.1 µM | 21.2 µM | 46.2 µM | 34.1 µM | 18.2 µM | 19.6 µM | 18.7 µM | > 50 µM | 16 µM | 13.7 µM | 9.73 µM | 9.84 µM | 13.7 µM | 11.8 µM | 8.73 µM | 8.76 µM | 16.4 µM | 9.44 µM
CN[C@@H](C)C(=O)N[C@H]1CN(C(=O)CC(C)C)CC[C@H]2CC[C@@H](C(=O)NC(c3ccccc3)c3ccccc3)N2C1=O | > 100 µM | > 100 µM | > 100 µM | > 100 µM | > 100 µM | > 100 µM | > 100 µM | > 78.9 µM | > 100 µM | > 100 µM | > 100 µM | > 100 µM | 1.78 µM | > 100 µM | > 100 µM | 61.6 µM | 17.6 µM | 43.7 µM | > 100 µM | > 100 µM
CN(C)c1ncnc2c1Cc1ccccc1C(=O)N2C | > 100 µM | > 100 µM | > 100 µM | > 100 µM | > 100 µM | > 100 µM | > 100 µM | > 100 µM | > 100 µM | > 100 µM |  |  |  |  |  |  |  |  |  | 
CC1CN(c2ccc(Cl)cc2)CC(C)(C)OC(=O)O1 (stereo not drawn) | > 100 µM | > 100 µM | > 100 µM | > 100 µM | > 100 µM | > 100 µM | > 100 µM | > 100 µM | > 100 µM | > 100 µM |  |  |  |  |  |  |  |  |  | 
CC(=O)[O-].CC(=O)[O-].O=C(N/N=C/c1cc(Cl)cc(Cl)c1O)c1ccncc1.[Ni+2] | > 100 µM | > 100 µM | > 100 µM | > 100 µM | > 100 µM | > 100 µM | > 100 µM | > 100 µM | 87.4 µM | > 100 µM |  |  |  |  |  |  |  | 46.6 µM |  | 
C/C1=C/C(=O)O[C@@H]2C[C@@H](CC[C@H](C)/C=C\C=C\CC1)O[C@@](O)([C@@H]1CSC(=O)N1CO)C2 | 0.341 µM | 12.3 µM | 12.4 µM | > 100 µM | > 46 µM | 74.6 µM | 24.3 µM | 2.84 µM | 34.9 µM | > 41.4 µM | 0.0921 µM | 0.137 µM | 0.0274 µM | 0.144 µM | 0.0465 µM | 1.6 µM | 0.0371 µM | 0.0796 µM | 0.0872 µM | 4.96 µM
Cc1ccc(-n2c3nc(=O)n(C)c(=O)c-3nc3ccccc32)cc1 | > 100 µM | > 100 µM | > 100 µM | 38.4 µM | 30.2 µM | 51.8 µM | > 100 µM | 32.6 µM | 37.2 µM | 49.4 µM |  |  |  |  |  |  |  |  |  | 
Cc1ccc2c(c1)C(C)Cc1c(ncnc1-n1cnc3cc(C)ccc31)N2C (stereo not drawn) | 21.1 µM | 12.5 µM | 0.0593 µM | 23.8 µM | 13.4 µM | 15.8 µM | 12.2 µM | 0.0784 µM | 15.8 µM | 17.6 µM | 0.0866 µM | 0.0371 µM | 0.0218 µM | 0.0634 µM | 0.0421 µM | 0.037 µM | 0.026 µM | 0.0419 µM | 0.0362 µM | 0.0368 µM
COc1cc(-c2nc(NC(C)=O)sc2-c2ccnc(NCCNS(=O)(=O)c3ccccc3)n2)ccc1Cl | > 100 µM | > 100 µM | 8.48 µM | > 100 µM | > 100 µM | > 100 µM | 59.3 µM | 8.72 µM | 6.23 µM | > 100 µM | 6.33 µM | 4.31 µM | 2.86 µM | 5.25 µM | 4.5 µM | 5.21 µM | 1.99 µM | 2.42 µM | 4.03 µM | 3.26 µM
CN1CCC(CNc2ccc3ncc(-c4cccc(OC(F)(F)F)c4)n3n2)CC1 | 8.52 µM and > 10 µM | 3.45 µM and 4.06 µM | 3.47 µM and 3.11 µM | 14.5 µM and > 10 µM | 4.97 µM and > 10 µM | 8.2 µM and > 10 µM | 1.78 µM and > 10 µM | 3.33 µM and 3.57 µM | 3.25 µM and 4.34 µM | 15.9 µM and 5.78 µM | 2.36 µM and 2.16 µM | 1.78 µM and 1.69 µM | 1.68 µM and 1.51 µM | 3.45 µM and 9.78 µM | 1.85 µM and 2.3 µM | 2.46 µM and 2.89 µM | 1.64 µM and 1.52 µM | 1.64 µM and 1.76 µM | 3.36 µM and 2.03 µM | 0.331 µM and 0.427 µM
